Laboratory results published in the NIST ThermoML archive (doi:10.1021/je400783h).

What was measured:
[1] = refractive index (Na D-line) (dimensionless); details: 101.33 kPa, Liquid, Standard Abbe refractometry
[2] = relative permittivity at various frequencies (dimensionless); details: 101 kPa, Liquid, Frequency=2 MHz, capacitive measurement method

OCC1CCCO1 (stereo unspecified) [2-tetrahydrofurylmethanol]
Details	refractive index, [1]	relative permittivity, [2]
278.15 K	–	15.2
280.65 K	–	15
283.15 K	1.45646	15
285.65 K	1.45549	14.9
288.15 K	1.45452	14.8
290.65 K	1.45356	14.7
293.15 K	1.45259	14.6
295.65 K	1.45162	14.5
298.15 K	1.45063	14.4
300.65 K	1.44965	14.4
303.15 K	1.44867	14.3
305.65 K	1.44769	14.2
308.15 K	1.44671	14.1
310.65 K	1.44572	14
313.15 K	1.44473	13.9
315.65 K	1.44375	13.8
318.15 K	1.44274	13.8
320.65 K	1.44176	13.6
323.15 K	1.44072	13.5
325.65 K	1.4397	13.5
328.15 K	1.43871	13.4
330.65 K	1.43772	13.3
333.15 K	1.43668	13.2
335.65 K	1.43567	13.1
338.15 K	1.43466	13

Cc1ccc(C=O)o1 [5-methylfurfural]
Details	refractive index, [1]	relative permittivity, [2]
278.15 K	–	45.2
280.65 K	–	44.5
283.15 K	1.5364	43.7
285.65 K	1.53529	43
288.15 K	1.53393	42.3
290.65 K	1.53269	41.6
293.15 K	1.53144	40.9
295.65 K	1.53019	40.2
298.15 K	1.5289	39.4
300.65 K	1.52765	38.7
303.15 K	1.5264	38
305.65 K	1.52513	37.2
308.15 K	1.52385	36.4
310.65 K	1.52257	35.8
313.15 K	1.5213	35.1
315.65 K	1.52	34.4
318.15 K	1.51872	33.7
320.65 K	1.51742	33.6
323.15 K	1.51615	32.4
325.65 K	1.51486	31.7
328.15 K	1.51357	31.1
330.65 K	1.51229	30.4
333.15 K	1.511	29.8
335.65 K	1.50972	29.1
338.15 K	1.50842	28.4
